Test results: EP4635944A1, “2-AZABICYCLO[3.1.1]HEPTANE COMPOUND” (Daiichi Sankyo Company, Limited, priority 2022, dated 2024)

The molecules below were run against T1, human OX2R (Homo sapiens, UniProt O43614) (assay: Evaluation of OX2R agonist activity (intracellular calcium, CHO-K1 cells with forced expression of human OX2R)). Conditions: CHO-K1 cells expressing human OX2R; 100% = 5 µM of the reference compound; read-out: hOX2R EC50.
T1 construct: host or cells: CHO-K1 (Chinese Hamster Ovary K1)
T1 sequence (O43614 1-444): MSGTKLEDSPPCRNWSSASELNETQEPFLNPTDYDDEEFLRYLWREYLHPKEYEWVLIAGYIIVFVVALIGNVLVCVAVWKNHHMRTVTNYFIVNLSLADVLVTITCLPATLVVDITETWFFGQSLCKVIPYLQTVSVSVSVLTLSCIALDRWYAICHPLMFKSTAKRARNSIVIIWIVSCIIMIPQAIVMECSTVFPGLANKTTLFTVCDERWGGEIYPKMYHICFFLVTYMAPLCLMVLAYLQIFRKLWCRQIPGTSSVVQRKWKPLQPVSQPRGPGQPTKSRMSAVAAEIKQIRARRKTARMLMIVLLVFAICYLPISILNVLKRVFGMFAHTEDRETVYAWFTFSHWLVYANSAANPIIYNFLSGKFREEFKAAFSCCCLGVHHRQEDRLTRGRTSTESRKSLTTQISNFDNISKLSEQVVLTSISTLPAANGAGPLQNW
Type: cell-based
Outline: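 Cells seeded 7500/well, cultured 24 h, loaded with Fluo 4-AM (2.5 µg/mL final) plus probenecid for 30 min. Calcium response read as 480/540 nm excitation ratio; max–min signal 5–7 s after compound addition, normalized to buffer (0%) and 5 µM reference agonist (100%). EC50 from concentration series; 0.5% DMSO final.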

Row | Compound | EC50 [µM]
1 | CCS(=O)(=O)NC1C2CC(C2)N(C(=O)N2CCC2)C1Cc1cccc(-c2cc(F)cc(F)c2)c1F (single isomer, unassigned) [Example 9, N-{2-(Azetidin-1-ylcarbonyl)-3-[(2,3',5'-trifluoro[biphenyl]-3-yl)methyl]-2-azabicyclo[3.1.1]heptan-4-yl}ethanesulfonamide] | 0.089
2 | C[C@@H](O)C(=O)N1C2CC(C2)[C@H](NS(C)(=O)=O)[C@@H]1Cc1cccc(-c2cc(F)cc(C#N)c2)c1F [Example 31, N-{(3S,4S)-3-[(3'-Cyano-2,5'-difluoro[biphenyl]-3-yl)methyl]-2-[(2R)-2-hydroxypropanoyl]-2-azabicyclo[3.1.1]heptan-4-yl}methanesulfonamide] | 0.189
3 | CCOC(=O)N1C2CC(C2)[C@H](NS(C)(=O)=O)[C@@H]1Cc1cccc(-c2ccccc2)c1F [Example 65, Ethyl (3S,4S)-3-[(2-fluoro[biphenyl]-3-yl)methyl]-4-[(methylsulfonyl)amino]-2-azabicyclo[3.1.1]heptane-2-carboxylate] | 0.393
4 | CC(C)(F)C(=O)N1C2CC(F)(C2)[C@H](NS(C)(=O)=O)[C@@H]1Cc1cccc(-c2ccccc2)c1F (single isomer, unassigned) [Example 85] | 0.275
5 | COc1cccc(-c2cccc(C[C@H]3[C@@H](NS(C)(=O)=O)C4CC(C4)N3C(=O)C(C)(C)O)c2F)c1 (stereo in doubt) [Example 14, N-[(3S,4S)-3-[(2-Fluoro-3'-methoxy[biphenyl]-3-yl)methyl]-2-(2-hydroxy-2-methylpropanoyl)-2-azabicyclo[3.1.1]heptan-4-yl]methanesulfonamide] | 0.298
6 | CC(C)S(=O)(=O)N[C@H]1C2CC(C2)N(C(=O)C(C)(C)O)[C@H]1Cc1cccc(-c2cc(F)cc(F)c2)c1F (single isomer, unassigned) [Example 4] | 0.225
7 | CS(=O)(=O)N[C@H]1C2CC(C2)N(C(=O)[C@H](O)CF)[C@H]1Cc1cccc(-c2ccccc2)c1F [Example 75, N-{(3S,4S)-3-[(2-Fluoro[biphenyl]-3-yl)methyl]-2-[(2S)-3-fluoro-2-hydroxypropanoyl]-2-azabicyclo[3.1.1]heptan-4-yl}methanesulfonamide] | 0.078

Stronger by EC50, values ahead:

Row | EC50 [µM] | Compound
8 | 0.035 | CS(=O)(=O)N[C@@H]1[C@H](Cc2cccc(-c3ccccc3)c2F)N(C(=O)[C@H](O)C(F)(F)F)C2CC1(F)C2 [Example 69, N-{(3S,4R)-5-Fluoro-3-[(2-fluoro[biphenyl]-3-yl)methyl]-2-[(2S)-3,3,3-trifluoro-2-hydroxypropanoyl]-2-azabicyclo[3.1.1]heptan-4-yl}methanesulfonamide]
9 | 0.033 | CC(C)(O)C(=O)N1C2CC(C2)[C@H](NS(C)(=O)=O)[C@@H]1Cc1cccc(-c2cc(F)cc(C(F)F)c2)c1F [Example 51, N-[(3S,4S)-3-{[3'-(Difluoromethyl)-2,5'-difluoro[biphenyl]-3-yl]methyl}-2-(2-hydroxy-2-methylpropanoyl)-2-azabicyclo[3.1.1]heptan-4-yl]methanesulfonamide]
10 | 0.075 | CS(=O)(=O)NC1C2CC(C2)N(C(=O)C2CC2)C1Cc1ccnc(-c2cccc(Cl)c2)c1F (single isomer, unassigned) [Example 60, N-[3-{[2-(3-Chlorophenyl)-3-fluoropyridin-4-yl]methyl}-2-(cyclopropylcarbonyl)-2-azabicyclo[3.1.1]heptan-4-yl]methanesulfonamide]
11 | 0.061 | CNC(=O)N1C2CC(C2)[C@H](NS(C)(=O)=O)[C@@H]1Cc1cccc(-c2cc(F)cc(F)c2)c1F [Example 27, (3S,4S)-N-Methyl-4-[(methylsulfonyl)amino]-3-[(2,3',5'-trifluoro[biphenyl]-3-yl)methyl]-2-azabicyclo[3.1.1]heptane-2-carboxamide]
12 | 0.049 | C[C@@H](O)C(=O)N1C2CC(C2)[C@H](NS(C)(=O)=O)[C@@H]1Cc1cccc(-c2cccc(F)c2)c1F [Example 40, N-{(3S,4S)-3-[(2,3'-Difluoro[biphenyl]-3-yl)methyl]-2-[(2R)-2-hydroxypropanoyl]-2-azabicyclo[3.1.1]heptan-4-yl}methanesulfonamide]
